From patent publication EP0335134B1, “Mouse monoclonal antibody to human immunodeficiency virus gp41 protein” (ABBOTT LABORATORIES, priority 1988, dated 1989)

Experiments:
[1] = test system: monoclonal antibody 5-21-3; assay: Immuno-dot blot of synthetic peptides with 5-21-3; type: binding, mouse; settings: 25 ug/ml 5-21-3
From the text: The western Blot procedure described in Example 1 was employed for development of immuno-dot blots using synthetic peptides, except that synthetic peptides were fixed to nitrocellulose by direct application using Drummond lambda pipettes, and air dried prior to blocking with 20% fetal calf serum in PBS (pH 7.4). Monoclonal IgG 5-21-3, and a second anti-HIV I gp41 monoclonal antibody (IgG) 10-15-63 (which recognizes an epitope distinct and separate from the epitope recognized by 5-21-3), were purified from mouse ascites using Protein A-Sepharose, and employed at the concentrations indicated.
Immuno-dot blot results are illustrated in Figure 5 where synthetic peptides were spotted onto nitrocellulose as follows:(A) 10 ug P58-130, (B) 10 ug P67-154,(C) 6 ug P121-154 and (D) 9 ug of P126-162. The strips were reacted with 25 ug/ml monoclonal antibody 5-21-3, 25 ug/ml monoclonal antibody 10-15-63, 25 ug/ml normal mouse IgG, 2% mouse (M) anti-rp41 serum, 2% normal mouse serum (NMS), 2% Rabbit (R) anti-P58-130 serum, or 2% normal rabbit serum (NRS).

[2] = test system: monoclonal antibody 5-21-3; assay: Immunoprecipitation of 125I synthetic peptides by 5-21-3; type: binding, mouse
Experimental: (§1) Synthetic peptides were radiolabeled with¹²⁵I (Amersham) by the chloramine T method (W.M. Hunter, "Radioimmunoassay" in D.M. Weir, Ed., Handbook of Experimental Immunology, [Blackwell Scientific Publications, 1973]). Generally, 2-6 ul of 100 mCi/ml ¹²⁵I were added to 10-50 ug of peptide in PBS, pH 7.4. Approximately 10 ug of freshly prepared (1 mg/ml in PBS) chloramine T were added to the mixture maintained at 4°C. After 5 min., [¹²⁵I]peptide was separated from free ¹²⁵I by passage of the reaction mixture through a 3 ml (bed volume) column of Biogel P-6 or P-2, as required. Fractions (200 ul each) containing [¹²⁵I]peptide were pooled and diluted into PBS containing 20% fetal calf serum. Rough estimations of¹²⁵I cpm bound to peptide were made by acid precipitation. An aliquot of labeled peptide was diluted into 1 ml of ice cold 50% trichloroacetic acid (TCA) overlaying a 0.45 um filter (made of mixed cellulose esters) set on a scintered glass filter connected to a vacuum apparatus. Precipitated protein was fixed onto the filter by application of vacuum, and filters were washed with ice-cold 50% TCA. Background cpm adhering non-specifically to the filter were estimated by repeating the procedure using a non-precipitating buffer. Amounts of peptide, ¹²⁵I, chloramine T, and composition of column eluting buffer were subject to change depending on conditions required to maintain solubility of each peptide.
Synthetic peptides radiolabeled with¹²⁵I were diluted into PBS (pH 7.4) containing 0.1% Triton X-100 (or other detergents where indicated) and 1.0% BSA, to yield approximately 2.5-5 X 10⁵ acid-precipitable cpm per 0.1 ml. Purified monoclonal IgG 5-21-3 and 10-15-63 were employed in the assay. Monoclonal antibodies were diluted into PBS containing 0.1% Triton X-100 (or other detergents where indicated), 1.0% BSA, and 2% normal mouse serum as a carrier immunoglobulin. Immune rabbit serum (anti-P58-130) was diluted appropriately into the same buffer except that normal rabbit serum (2%) was substituted for normal mouse serum as the carrier immunoglobulin. A reaction mixture comprising 0.1 ml [¹²⁵I] peptide (5 X l0⁵ cpm/0.1 ml) and 0.1 ml diluted antibody was incubated 1 hr at […], followed by addition of 0.1 ml of a precipitating antibody, either goat anti-mouse IgG, or goat anti-rabbit IgG, corresponding to the primary antibody. The reaction mixture was incubated 1 hr at […] and then overnight at 4°C. The precipitate was collected by centrifugation (2,000 x g, 5 min., 20°C), washed once in PBS containing 0.1% Triton X-100 and 1.0% BSA, collected by centrifugation, and counted in an LKB 128 gamma counter. […]

[3] = test system: monoclonal antibody 10-15-63; assay: Immunoprecipitation of 125I synthetic peptides by 10-15-63; type: binding, mouse; settings: 10 ug/0.2 ml reaction mixture; 0.1% Triton X-100, 1.0% BSA, carrier serum; second antibody precipitation
Experimental: Synthetic peptides were radiolabeled with¹²⁵I (Amersham) by the chloramine T method (W.M. Hunter, "Radioimmunoassay" in D.M. Weir, Ed., Handbook of Experimental Immunology, [Blackwell Scientific Publications, 1973]). Generally, 2-6 ul of 100 mCi/ml ¹²⁵I were added to 10-50 ug of peptide in PBS, pH 7.4. Approximately 10 ug of freshly prepared (1 mg/ml in PBS) chloramine T were added to the mixture maintained at 4°C. After 5 min., [¹²⁵I]peptide was separated from free ¹²⁵I by passage of the reaction mixture through a 3 ml (bed volume) column of Biogel P-6 or P-2, as required. Fractions (200 ul each) containing [¹²⁵I]peptide were pooled and diluted into PBS containing 20% fetal calf serum. Rough estimations of¹²⁵I cpm bound to peptide were made by acid precipitation. […]
(§2) Synthetic peptides radiolabeled with¹²⁵I were diluted into PBS (pH 7.4) containing 0.1% Triton X-100 (or other detergents where indicated) and 1.0% BSA, to yield approximately 2.5-5 X 10⁵ acid-precipitable cpm per 0.1 ml. […] The precipitate was collected by centrifugation (2,000 x g, 5 min., 20°C), washed once in PBS containing 0.1% Triton X-100 and 1.0% BSA, collected by centrifugation, and counted in an LKB 128 gamma counter. […]

[4] = test system: Rabbit (R) anti-P58-130 serum; assay: Immunoprecipitation of 125I synthetic peptides by rabbit anti-P58-130 serum; type: binding
Experimental: as §1
as §2, with “ml. Purified monoclonal IgG 5-21-3 and 10-15-63 were employed in the assay. Monoclonal antibodies were diluted into PBS containing 0.1% Triton X-100 (or other detergents where indicated), 1.0% BSA, and 2% normal mouse serum as a carrier immunoglobulin.” for “ml.”

[5] = test system: Binding of Antibody 5-21-3 to rp41; assay: Binding inhibition assay: peptides blocking 5-21-3 binding to rp41; design: species or system mouse
Experimental: Additional evidence for the conformational nature of the 5-21-3 epitope was obtained using binding inhibition studies, in which synthetic peptides were ranked for their ability to inhibit binding of 5-21-3 to rp41. First, the Fab dimer of an anti-gp41 monoclonal antibody was prepared by conventional methods (Goding et al., supra). Then 100 ul of a 1 mg/ml solution of the Fab dimer in bicarbonate buffer (pH 9.6) was coated onto Immulon II microtiter plates for 1 hr at 37°C. After washing with PBS containing 0.05% Tween 20, the plates were overcoated with 200 ul of 1.0% ovalbumin in bicarbonate buffer (pH 9.6) for 1 hr at 30°C. After washing, 100 ul of rp41 enriched E. coli lysate (as described in Example 3), diluted appropriately in PBS containing 0.05% Tween 20, were allowed to bind to the Fab dimer for 2 hr at 30°C. The plates were washed and stored at 4°C.
Intact monoclonal antibody 5-21-3 IgG (purified from tissue culture fluid supporting growth of the cloned cell line 5-21-3) was titrated against the bound rp41 on the plate, and an antibody concentration was selected which yielded an A₄₉₂ value of 2.0-3.0. Usually, 0.4 pmol (0.06 ug) of 5-21-3 IgG per microtiter well was employed in these assays. Stock solutions of 5-21-3 IgG were prepared in PBS containing 0.1% Triton X-100 and 0.1% SDS. Dilutions of synthetic peptides were made in the same buffer (SDS was included in these experiments to keep peptides soluble at high concentrations).
The binding inhibition assay was performed by combining 0.15 ml of 1.2 ug/ml 5-21-3 antibody stock solution with 0.15 ml of peptide at a selected peptide concentration, and incubating the reaction mixture 1 hr at room temp. Then 0.1 ml aliquots of each reaction mixture were added to each of two wells in the microtiter tray. After a 1 hr incubation at room temp., the plates were washed, and HRPO conjugated Goat anti-mouse IgG Fc was added for 1 hr at room temp. The plates were washed, and addition of OPD for color development identified the relative amounts of 5-21-3 bound to rp41 in the microtiter wells. The reaction was stopped by addition of 100 ul of 1N H₂S0₄, and the plates were read on a Dynatech II microtiter plate reader.

[6] = 10 ug/0.2 ml reaction mixture, 0.1% Triton X-100, 1.0% BSA, carrier serum, second antibody precipitation
[7] = serum 20 ul/0.2 ml reaction mixture, 0.1% Triton X-100, 1.0% BSA, carrier serum, second antibody precipitation

P121-154: synthetic peptide corresponding to gp41 amino acids 121-154 (DREINNYTSLIHSLIEESQNQQEKNEQELLELDK; Transmembrane protein gp41; UniProt P04578 632-665, looked up, fragment) [Peptide P121-154]
dot blot reactivity with antibody 5-21-3 ([1]; mild washing procedures): faint, diffuse reaction | dot blot reactivity with antibody 5-21-3 ([1]; peptide spotted on nitrocellulose): difficult to demonstrate | SPECIFIC PRECIPITATION (CPM) 5-21-3 [2, 6]: 40,717 CPM | x-fold increase of specific precipitation over non-specific precipitation, 5-21-3 [2, 6]: 31 x-fold | binding of the peptide by antibody 5-21-3 ([2]; in words, summary of Table 4): provided an epitope which was recognized by 5-21-3 | 5-21-3 concentration required to demonstrate reactivity against the peptide ([2]; summary of Table 5): at least 100 ug/ml | SPECIFIC PRECIPITATION (CPM) 10-15-63 [3]: 371 CPM | x-fold increase of specific precipitation over non-specific precipitation, 10-15-63 [3]: 1.3 x-fold | precipitation by rabbit anti-P58-130 ([4]; in words, summary of Table 4): strong precipitator | SPECIFIC PRECIPITATION (CPM) RαP58-130 [4, 7]: 310,419 CPM | x-fold increase of specific precipitation over non-specific precipitation, RαP58-130 [4, 7]: 24 x-fold | binding inhibition activity restored by flanking sequence, relative to P131-154 [5]: 20-65 fold | binding inhibition activity, fold less active than P67-154 [5]: 20 fold | Molar Ratio ([5]; at 50% inhibition of 5-21-3 binding, mean of two experiments): 1,494 pmoles peptide/pmoles 5-21-3 | inhibition of 5-21-3 binding to rp41 ([5]; in words (Fig. 6, Table 6)): potent inhibitor
